Where a name gives a salt, the structure may show the parent alone. Read-outs that look alike come from different tables or passages of the source.
Legend:
[1] = adhesion studies on tablet punches; type: physicochemical; settings: for Adhesion, 5% (S)-Amlodipine salt in Avicel: 5% API blend with Avicel PH 101, 0.2 metric tons; for Adhesion, 5% (S)-Amlodipine salt in Avicel / Adhesion, 25% (S)-Amlodipine salt in Avicel: punch wash assayed by HPLC; for Adhesion, 25% (S)-Amlodipine salt in Avicel: 25% API blend with Avicel PH 101, 0.2 metric tons; for adhesion to solid dosage form manufacturing equipment compared to other salts: blended at 5% and 25% with Avicel
Description: Avicel PH 101 and each (S)-amlodipine salt were pre-screened through a 25-mesh sieve to delump the powders prior to blending. […] Approximately 500 mg was weighed into the ½-inch tablet die, a tablet punch was added and 0.2 metric tons of pressure was applied using a Carver press for 2-3 seconds. The tablet was then removed, and the surfaces of the tablet punches (concave, SRC) were washed with mobile phase (1 mL). The wash was then assayed by HPLC. Three measurements were made for each blend.

[2] = no buffer
[3] = type: physicochemical; settings: 60° C./75% RH
Description: Individual samples were prepared and stored at 25° C./60% RH and 40° C./75% RH. Samples stored at 60° C./75% RH were packaged in uncapped glass vials. All samples were analyzed for assay and impurity by HPLC.

[4] = type: physicochemical
Description: The GLpKa potentiometric system uses expert system software to calculate and refine the pKa and Log P from simple acid and base titrations of chemical substances. […] The solution was then titrated with acid to the final pH. The pH range of the experiment was 3-11. An approximate pKa was determined, and refined to a final value using the expert system software. The Log P was determined by titration in the presence of octanol. The pKa in water and the pKa in the presence of octanol were compared, and the Log P value was calculated (Avdeef A. Quant. Struct.-Act. Relate. 1992, 11, 510). […] Samples were analyzed in duplicate.

wettability = type: physicochemical; settings: DI water and 100 mM aqueous buffers
[5] = type: physicochemical; settings: pH 3.8
Description: Samples at pH 3.8, 4.5, and 5.0 were monitored over 1 week. […] The sample at pH 8.0 was monitored over 2 days. […] The samples at pH 3.8 or greater were filtered using 0.2 μm PTFE syringe filters and assayed by HPLC. Saturated solutions with excess solid (S)-amlodipine L-malate were prepared and allowed to mix overnight at ambient temperature.

TGA = type: physicochemical; settings: heating rate 10° C./min
Description: (§1) Moisture Sorption Isotherms: Moisture sorption isotherms were generated using VTI SGA-100 symmetric vapor sorption analyzer. Samples were not pre-dried. Equilibrium criteria were the lesser of 0.01 wt % change in 5 minutes or 180 minutes at each RH step. Temperature was fixed at 25° C. and the relative humidity steps (25% to 95% to 25%) were in 5% increments. In FIG. 27, adsorption data is shown as a solid line with desorption data connected by a dashed line. Water Content: Water content was determined by coulometric titration using an EM Science Aquastar® C300 Karl Fischer titrator. TGA: Samples were analyzed using Perkin Elmer TGA 7 thermal gravimetric analyzer at a heating rate of 10° C./min.

[6] = water content by Karl Fischer titration; type: physicochemical; settings: coulometric titration
Description: as §1

[7] = type: physicochemical; remark: listed apart in the source
Description: as §1

[8] = specific surface area (BET); type: physicochemical; settings: N2, single measurement
Description: The sample was degassed for 2 hours prior to surface area analysis at 40° C./vacuum using the Micromeritics […] 061. […] The surface area of (S)-amlodipine L-malate SCL was determined using the BET method. BET (Specific) Surface Area measurement was done with a single run (n=1), using 6 different partial pressures of N2 gas (as the adsorbate). See Brunauer, […]., and Teller, E. J. Amer. Chem. Soc. 1938, 60, 309.

[9] = true, bulk and tapped density; type: physicochemical
Description: Bulk and Tap Density: Bulk and tap densities were determined (˜10 grams in a 50 mL graduated cylinder) using a Quantachrome Dual Autotap instrument. The bulk density was measured after 3 taps, and the tapped density was measured after 1000 taps. True Density: True density was determined using a MVP-2 Quantachrome micropycnometer and He gas.

[10] = moisture balance (polymorph characterization); type: physicochemical; settings: equilibrated at 95% RH (sorption from 5% to 95% RH)
Description: Moisture-sorption data were collected on a VTI SGA-100 moisture balance system. […] The sample was not dried prior to analysis. Equilibrium criteria used for analysis were less than 0.0100 weight-percent change in 5 minutes with a maximum equilibration time of 3 hours if the weight criterion was not met. The data were not corrected for the initial moisture content of the sample.

[11] = hygroscopicity studies in relative humidity chambers; type: physicochemical; settings: 31, 75, 84 and 95% relative humidity, approximately one week
Description: Hygroscopicity studies were performed by placing portions of a select form in a 11, 32, 45, 66, 75, 84% or 95% relative humidity (RH) chamber for approximately one to three weeks. Desolvation studies were carried out by heating each form in an 80° C. oven for approximately one week. Interconversion experiments were carried out by making slurries containing two forms in a saturated solvent. The slurries were agitated for approximately seven days at ambient temperature. The insoluble solids were recovered by filtration and analyzed using XRPD.

[12] = pH 4
Description: (§2) The solution was sampled periodically, filtered using a 0.2 μm PTFE syringe filter and assayed by HPLC.
(§3) The sample was filtered through a 0.2 μm filter and assayed by HPLC.

[13] = water solubility in DI H2O; settings: pH 3.56
Description: as §2, §3

## CCOC(=O)C1=C(COCCN)NC(C)=C(C(=O)OC)[C@@H]1c1ccccc1Cl [(S)-amlodipine maleate]
[1]
  Adhesion, 5% (S)-Amlodipine salt in Avicel: 5.8E−07 g (S)-amlodipine/cm^2
  Adhesion, 25% (S)-Amlodipine salt in Avicel: 3.9E−06 g (S)-amlodipine/cm^2
After 5 hours @ pH 1
  loss: 1%
After 50 hours @ pH 5
  loss: 1%
[2]
  pH of saturated solution in water: 4.9

## O=C(O)[C@H](O)[C@@H](O)C(=O)O [(L)-Tartrate]
[1]
  Adhesion, 5% (S)-Amlodipine salt in Avicel: 9.3E−07 g (S)-amlodipine/cm^2
  Adhesion, 25% (S)-Amlodipine salt in Avicel: 4.9E−06 g (S)-amlodipine/cm^2

## CCOC(=O)C1=C(COCCN)NC(C)=C(C(=O)OC)[C@@H]1c1ccccc1Cl.O=C(O)C(O)C(O)C(=O)O [(S)-amlodipine D-tartrate]
[1]
  Adhesion, 5% (S)-Amlodipine salt in Avicel: 6.0E−07 g (S)-amlodipine/cm^2
  Adhesion, 25% (S)-Amlodipine salt in Avicel: 2.8E−06 g (S)-amlodipine/cm^2

## (S)-amlodipine L-malate
[3]
  time for which the solid was fairly stable: > 2 months
[4]
  pKa: 9.19±0.20
[4]; pH 5
  Log P: −2.67±0.40
[4]; pH 7.4
  Log P: −0.28±0.40
wettability
  wettability: good wettability
[5]
  solubility: > 100 mg/mL
TGA
  TGA (% wt loss): 0.14 % wt loss
[6]
  KF (% H2O): 0.13 % H2O
[7]
  Moisture Desorption (% wt remaining at 25% RH): 0.06 % wt remaining
[7]; 25° C., 95% RH
  Moisture Adsorption (% wt gain at 95% RH): 0.24 % wt gain
[7]; 25° C./95% RH, three lots tested
  maximum adsorption of water: ≤ 0.30%
[7]; moisture sorption, TGA and Karl Fischer data
  hygroscopicity (in words): not hygroscopic
[1]
  Adhesion, 5% (S)-Amlodipine salt in Avicel: 4.9E−07 g (S)-amlodipine/cm^2
  Adhesion, 25% (S)-Amlodipine salt in Avicel: 2.6E−06 g (S)-amlodipine/cm^2
  adhesion to solid dosage form manufacturing equipment compared to other salts: decreased adhesion
[1]; listed as malate salt
  adhesion to solid dosage form manufacturing equipment compared to other salts: less than for the succinate, maleate, (D)-tartrate, and (L)-tartrate salts
[8]
  Specific surface area: 0.7 m^2/g
[9]
  True density: 1.38 g/cc
[9]; after 3 taps
  Bulk density: 0.31 g/mL
[9]; after 1000 taps
  Tapped density: 0.49 g/mL
[9]; micropycnometer, He gas
  True density: 1.38 g/mL
[10]
  increase in weight, moisture balance: 0.5%
[11]
  solid form after humidity storage: remained unchanged
[12]
  Free Base Concentration: 10.1 mg/mL
  Malate Concentration: 13.4 mg/mL
[13]
  Free Base Concentration: 6.0 mg/mL
  Malate Concentration: 8.0 mg/mL

From patent US20060030602A1, “(S)-amlodipine malate” (Sepracor Inc., priority 2004, published 2006)
